Measurements from patent US20210002650A1, “COMPOSITIONS AND METHODS FOR TREATING ALZHEIMER'S DISEASE” (University of Virginia Patent Foundation, priority 2019, published 2021).
Structures can show the parent of a compound that is named as a salt.

Key:
[1] = tested on: primary mouse cortical neurons; test: AβO-induced neuronal cell cycle re-entry (CCR), cyclin D1/NeuN/MAP2 triple immunofluorescence; type: cell-based; set-up: induction of CCR in primary neuron cultures: dose or concentration left out as unconfirmed
Description: Cortical neuron cultures derived from E17/18 wild type C57/BL6 mouse embryos prepared and maintained as described previously. Cultures were maintained for 16-18 days prior to experimental manipulations.
20 μl aliquots were stored at −80° C. until ready to use. To prepare oligomers, an aliquot was dried in a speed vac for 3 hours, solubilized in 1 mM in dimethyl sulfoxide (Sigma, D2650-5X5ML), placed in a water bath sonicator for 5 minutes, and then supplemented with Neurobasal medium (GIBCO/Life Technologies, 21103-049) to yield a final peptide concentration of 100 μM. The solution was then placed on an orbiting rocker at 4° C. for 48 hours, after which it was centrifuged at 14,000×g in a tabletop microcentrifuge for 15 minutes to pellet large aggregates.
All steps were performed at room temperature unless indicated otherwise. Primary mouse cortical neurons grown on #1.5 thickness, 12 mm round glass coverslips were rinsed once with ice-cold phosphate buffered saline (PBS), and then were fixed in 4% paraformaldehyde in PBS for 12 minutes. Following fixation, the cells were rinsed 3 times for 5 minutes each with ice cold PBS, permeabilized for 15 minutes with PBS containing 0.2% Triton X-100 (Fisher, 9002-93-1), and rinsed 3 times for 5 minutes each with PBS. Next, the cells were blocked with PBST (PBS supplemented with 2% bovine serum albumin (BSA; Roche, 03116956001); and 0.1% Tween 20 (Fisher, 9005-64-5) for 1 hour, after which they were labeled overnight with primary antibodies followed by secondary antibodies for 1 hour. Antibodies were diluted into 2% BSA in PBS, and after each antibody incubation step the cells were rinsed 3 times for 5 minutes each with PBS. Finally, the coverslips were rinsed with ultrapure water and mounted onto slides using Fluormount-G (Southern Biotech, 0100-01) containing 1% 1,4-diazabicyclo[2.2.2]octane (Sigma, D27802-25MG), an anti-quenching agent.
(§1) Cultured neurons and brain sections were imaged on either of two microscopes: 1) Nikon Eclipse Ti equipped with a Yokogawa CSU-X1 spinning disk head, 20×0.75 NA CFI Plan Apo, 40×1.3 NA CFI S Fluor and 60×1.4 NA Plan Apo objectives; 405 nm, 488 nm, 561 nm and 640 nm lasers; and a Hamamatsu Flash 4.0 scientific CMOS camera; or 2) EVOS FL imaging system (Invitrogen). Micrographs were captured using either Nikon Elements or EVOS software. CCR-positive cells were counted using the ImageJ cell counter plugin for brain sections (available at an NIH website), and were counted manually using the EVOS microscope for primary neuron cultures. For cultured neurons (FIGS. 1-4, S5 and S2), 4 biological replicates of >300 neurons were counted per condition per experiment.
To test the hypothesis that neuronal CCR is calcium-dependent we first treated primary mouse cortical neurons with BAPTA-AM, a cell-permeant chelator of intracellular calcium, beginning 30 minutes prior to addition of AβOs to the cultures.
Accordingly, primary neuron cultures were treated with MK-801, an NMDAR inhibitor that blocks calcium entry through the channel pore, beginning 30 minutes before AβOs were added. […] Otherwise identical experiments were performed using 6-cyano-7-nitroquinoxaline-2,3-dione (CNQX) to block plasma membrane AMPA receptors (FIG. 7), 2-aminoethoxydiphenyl borate (2-ABP) to block ER-associated IP3 receptors and TRP channels (FIG. 8), or dantrolene to inhibit ER-associated ryanodine receptors (FIG. 8).

CaMKII = test: phospho-activated versus total CaMKII by western blotting of AβO-treated cortical neurons; type: cell-based, mouse; details: 10 μM MK-801, 30 minute pre-treatment; 15 minutes after AβO addition
Description: Samples were resolved on 12% SDS polyacrylamide gels, then transferred at 100 V for 1.75 hours onto 0.22 μm pore size nitrocellulose membranes using a Bio-Rad Mini-PROTEAN Tetra Electrophoresis Cell. Following transfer, blots were rinsed once in tris-buffered saline (TBS), blocked for 30-60 minutes in blocking buffer (LI-COR, 927-50000), sequentially incubated in primary antibodies overnight at 4° C. in antibody buffer (1:1 mix of blocking buffer, and TBST: TBS+0.1% Tween-20), then LI-COR infrared-labeled secondary antibodies for 30 minutes. Blots were rinsed 3 times for 5 minutes each using TBST after the primary antibody or TBS after the secondary antibody. Finally, membranes were scanned using a LI-COR Odyssey imaging station.
CaMKII is of particular interest, as it can be activated via calcium influx through NMDAR. We thus tested the hypothesis that AβO-mediated calcium influx through NMDAR activates CaMKII as a mediator of CCR. Again, we treated primary neurons with AβOs with or without a 30 minute MK-801 pre-treatment, and collected the cells at various time points from 0-2 hours after AβO stimulation for western blotting with antibodies to phospho-activated and total CaMKII. […] The AβO-mediated activation of CaMKII necessary for CCR [19] is therefore dependent upon calcium influx through NMDAR.

Tg2576 AD model mice = test: neuronal CCR in vivo, cyclin D1-positive cortical neurons in brain sections after memantine in drinking water; set-up: species or system mouse; details: memantine ~30 mg/kg/day in drinking water from 3 weeks until 2 months of age
Description: Brain tissue sections were obtained from mice that were transcardially perfused first with 10 ml of phosphate buffer (PB; 0.1 M sodium phosphate, pH 7.6), followed by 10 ml of 4% paraformaldehyde in PB at a flow rate of 1.5 ml/minute. Next, brains were removed and placed in 4% paraformaldehyde in PB for 24 hours, washed 3 times in PBS, incubated in 30% sucrose overnight, and flash frozen using dry ice. Frozen tissue was stored at −80° C. until ready for sectioning to 40 μm thickness on a Microm HM 505 E cryostat. […]
as §1, with “Micrographs were captured using either Nikon Elements or EVOS software.” left out, “experiment. […]” for “experiment.”

[2] = cited from earlier work
[3] = 10 μM, 30 minute pre-treatment, 16-18 hours AβOs

With `NCCOB(c1ccccc1)c1ccccc1` [2-ABP, 2-aminoethoxydiphenyl borate] the “AβO-induced neuronal CCR (cyclin D1-positive neurons)” value (“AβO-induced neuronal CCR” for short) ([1]; 50 μM 2-APB to block IP3 receptors, 18 hours AβOs) was “none of those inhibitors blocked CCR”.

In the case of `CC(=O)OCOC(=O)CN(CC(=O)OCOC(C)=O)c1ccccc1OCCOc1ccccc1N(CC(=O)OCOC(C)=O)CC(=O)OCOC(C)=O` [BAPTA-AM, 1,2-Bis(2-aminophenoxy)ethane-N,N,N′,N′-tetraacetic acid tetrakis(acetoxymethyl ester)], the “AβO-induced neuronal CCR” value [1, 3] is reported as “prevented”.

In the case of `N#Cc1cc2c(cc1[N+](=O)[O-])=NC(=O)C(=O)N=2` [CNQX, 6-cyano-7-nitroquinoxaline-2,3-dione], the “AβO-induced neuronal CCR” value [1, 3] is reported as “none of those inhibitors blocked CCR”.

With `C[C@]12N[C@H](Cc3ccccc31)c1ccccc12` [MK-801, (1S,9R)-1-methyl-16-azatetracyclo[7.6.1.02,7.010,15]hexadeca-2,4,6,10,12,14-hexaene] the “AβO-mediated transient activation of CaMKII (phosphorylated relative to total CaMKII)” value (CaMKII) was “activation was prevented” and the “AβO-induced neuronal CCR” value [1, 3] was “blocked the induction of CCR”.

With `CN[C@H](CC(=O)O)C(=O)O` [NMDA] the “induction of CCR in primary neuron cultures” value ([1]; 30 second shock of NMDA, no AβOs) was “induces CCR”.

With `O=C1CN(/N=C/c2ccc(-c3ccc([N+](=O)[O-])cc3)o2)C(O)=N1` [dantrolene] the “AβO-induced neuronal CCR” value ([1]; 20 μM dantrolene to block ryanodine receptors, 18 hours AβOs) was “none of those inhibitors blocked CCR”.

In the case of `CC12CC3CC(C)(C1)CC(N)(C3)C2` [memantine, 1-amino-3,5-dimethyladamantane hydrochloride], the “neuronal CCR along cortical regions (cyclin D1 immunoreactivity)” value (Tg2576 AD model mice; Tg2576 mice (untreated 8.8%)) is reported as “reduced to WT levels”, the “neuronal CCR along cortical regions (cyclin D1 immunoreactivity)” value (Tg2576 AD model mice; WT mice) is reported as 1.6% and the “AβO-induced neuronal CCR” value [1, 3] is reported as “prevented AβOs from inducing neuronal CCR”. The solubility in water [2] was “soluble in water”.
